Measurements published in ChEMBL document CHEMBL1201862, “PubChem BioAssay data set” (2004).
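1) Cells in 96-well plates. 2) Compound, 48 h, 5 concentrations. 3) Linear interpolation between surrounding doses. 4) Unreached endpoint = highest concentration. GI50 is the concentration that inhibits growth by half.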 The source made the active and inactive calls. Cut-off read from the data, not from the text of the source: active = GI50 up to about 1.1 µM and inactive = higher.

Assays:
Test in all cases: NCI tumour cell line growth inhibition, 48 h
HCT-116 = tested on: HCT-116
T47D = tested on: T47D
HT-29 = tested on: HT-29
OVCAR-5 = tested on: OVCAR-5
LOX IMVI = tested on: LOX IMVI
OVCAR-3 = tested on: OVCAR-3
EKVX = tested on: EKVX
CCRF-CEM = tested on: CCRF-CEM
A498 = tested on: A498
SW-620 = tested on: SW-620
NCI-H23 = tested on: NCI-H23
CAKI-1 = tested on: CAKI-1
UACC-257 = tested on: UACC-257
SNB-19 = tested on: SNB-19
UO-31 = tested on: UO-31
IGROV-1 = tested on: IGROV-1
BT-549 = tested on: BT-549
RXF 393 = tested on: RXF 393
TK-10 = tested on: TK-10
ACHN = tested on: ACHN
SF-268 = tested on: SF-268
OVCAR-8 = tested on: OVCAR-8
SNB-75 = tested on: SNB-75
HOP-62 = tested on: HOP-62
SR = tested on: SR
COLO 205 = tested on: COLO 205
SK-MEL-2 = tested on: SK-MEL-2
PC-3 = tested on: PC-3
MDA-N = tested on: MDA-N
OVCAR-4 = tested on: OVCAR-4
NCI-H226 = tested on: NCI-H226
DU-145 = tested on: DU-145
MOLT-4 = tested on: MOLT-4
Hs-578T = tested on: Hs-578T
SF-539 = tested on: SF-539
KM12 = tested on: KM12
NCI/ADR-RES = tested on: NCI/ADR-RES
MDA-MB-435 = tested on: MDA-MB-435
A549 = tested on: A549
NCI-H522 = tested on: NCI-H522
HCT-15 = tested on: HCT-15
Malme-3M = tested on: Malme-3M
MCF7 = tested on: MCF7
RPMI-8226 = tested on: RPMI-8226
SK-OV-3 = tested on: SK-OV-3
HOP-92 = tested on: HOP-92
M14 = tested on: M14
HCC 2998 = tested on: HCC 2998
U-251 = tested on: U-251
UACC-62 = tested on: UACC-62
MDA-MB-231 = tested on: MDA-MB-231
SK-MEL-5 = tested on: SK-MEL-5
HL-60 = tested on: HL-60
SK-MEL-28 = tested on: SK-MEL-28
SF-295 = tested on: SF-295
786-0 = tested on: 786-0
SN12C = tested on: SN12C
K562 = tested on: K562
NCI-H460 = tested on: NCI-H460

COc1ccc(C(OCC2OC(n3cc(C)c(=O)[nH]c3=O)CC2n2cc(Cn3cc(I)c(=O)[nH]c3=O)nn2)(c2ccccc2)c2ccccc2)cc1 (stereo not drawn)
GI50 (HCT-116): > 100 µM (inactive) | GI50 (T47D): > 100 µM (inactive) | GI50 (HT-29): > 100 µM (inactive) | GI50 (OVCAR-5): > 100 µM (inactive) | GI50 (LOX IMVI): > 100 µM (inactive) | GI50 (OVCAR-3): > 100 µM (inactive) | GI50 (EKVX): > 100 µM (inactive) | GI50 (CCRF-CEM): 11.2 µM (inactive) | GI50 (A498): > 100 µM (inactive) | GI50 (SW-620): > 100 µM (inactive) | GI50 (NCI-H23): > 100 µM (inactive) | GI50 (CAKI-1): > 100 µM (inactive) | GI50 (UACC-257): > 100 µM (inactive) | GI50 (SNB-19): > 100 µM (inactive) | GI50 (UO-31): > 100 µM (inactive) | GI50 (IGROV-1): > 100 µM (inactive) | GI50 (BT-549): > 100 µM (inactive) | GI50 (RXF 393): > 100 µM (inactive) | GI50 (TK-10): > 100 µM (inactive) | GI50 (ACHN): > 100 µM (inactive) | GI50 (SF-268): 78.5 µM (inactive) | GI50 (OVCAR-8): > 100 µM (inactive) | GI50 (SNB-75): 48.6 µM (inactive) | GI50 (HOP-62): > 100 µM (inactive) | GI50 (SR): > 100 µM (inactive) | GI50 (COLO 205): > 100 µM (inactive) | GI50 (SK-MEL-2): > 100 µM (inactive) | GI50 (PC-3): > 100 µM (inactive) | GI50 (MDA-N): > 100 µM (inactive) | GI50 (OVCAR-4): > 100 µM (inactive) | GI50 (NCI-H226): > 100 µM (inactive) | GI50 (DU-145): > 100 µM (inactive) | GI50 (MOLT-4): 7.67 µM (inactive) | GI50 (Hs-578T): 44.8 µM (inactive) | GI50 (SF-539): > 100 µM (inactive) | GI50 (KM12): 14.2 µM (inactive) | GI50 (NCI/ADR-RES): > 100 µM (inactive) | GI50 (MDA-MB-435): > 100 µM (inactive) | GI50 (A549): > 100 µM (inactive) | GI50 (NCI-H522): > 100 µM (inactive) | GI50 (HCT-15): > 100 µM | GI50 (Malme-3M): > 100 µM (inactive) | GI50 (MCF7): > 100 µM (inactive) | GI50 (RPMI-8226): 15.2 µM (inactive) | GI50 (SK-OV-3): > 100 µM (inactive) | GI50 (HOP-92): > 100 µM (inactive) | GI50 (M14): > 100 µM (inactive) | GI50 (HCC 2998): > 100 µM (inactive) | GI50 (U-251): > 100 µM (inactive) | GI50 (UACC-62): > 100 µM (inactive) | GI50 (MDA-MB-231): > 100 µM (inactive) | GI50 (SK-MEL-5): > 100 µM (inactive) | GI50 (HL-60): 1.58 µM (inactive) | GI50 (SK-MEL-28): > 100 µM (inactive) | GI50 (SF-295): > 100 µM (inactive) | GI50 (786-0): > 100 µM (inactive) | GI50 (SN12C): > 100 µM (inactive)

COc1ccc(C2CCc3c(cnc4nc(N)nc(N)c34)C2)cc1 (stereo not drawn)
GI50 (HCT-116): 1.73 µM (inactive) | GI50 (T47D): 31 µM (inactive) | GI50 (HT-29): 4.69 µM (inactive) | GI50 (OVCAR-5): 13.9 µM (inactive) | GI50 (LOX IMVI): 0.968 µM (active) | GI50 (OVCAR-3): 62.5 µM (inactive) | GI50 (EKVX): 73.6 µM (inactive) | GI50 (A498): 38.4 µM (inactive) | GI50 (SW-620): 5.25 µM (inactive) | GI50 (CAKI-1): > 100 µM (inactive) | GI50 (UACC-257): > 100 µM (inactive) | GI50 (SNB-19): 33.7 µM (inactive) | GI50 (IGROV-1): 1.09 µM (active) | GI50 (BT-549): 44.7 µM (inactive) | GI50 (RXF 393): 16.8 µM (inactive) | GI50 (TK-10): 12.8 µM (inactive) | GI50 (ACHN): 8.28 µM (inactive) | GI50 (SF-268): 12.9 µM (inactive) | GI50 (OVCAR-8): 5.4 µM (inactive) | GI50 (SNB-75): 10.3 µM (inactive) | GI50 (HOP-62): 20.5 µM (inactive) | GI50 (SR): 8 µM (inactive) | GI50 (COLO 205): > 100 µM (inactive) | GI50 (SK-MEL-2): 47.4 µM (inactive) | GI50 (PC-3): > 100 µM (inactive) | GI50 (MDA-N): 1.04 µM (active) | GI50 (K562): 0.83 µM (active) | GI50 (OVCAR-4): > 100 µM (inactive) | GI50 (NCI-H226): > 100 µM (inactive) | GI50 (DU-145): 37.4 µM (inactive) | GI50 (MOLT-4): 9.48 µM (inactive) | GI50 (Hs-578T): 40.8 µM (inactive) | GI50 (SF-539): 26.5 µM (inactive) | GI50 (KM12): > 100 µM (inactive) | GI50 (NCI/ADR-RES): > 100 µM (inactive) | GI50 (MDA-MB-435): 4.53 µM (inactive) | GI50 (NCI-H460): 4.89 µM (inactive) | GI50 (A549): 6.43 µM (inactive) | GI50 (NCI-H522): 13.6 µM (inactive) | GI50 (HCT-15): 5.15 µM | GI50 (Malme-3M): 18.9 µM (inactive) | GI50 (MCF7): 15.8 µM (inactive) | GI50 (RPMI-8226): > 100 µM (inactive) | GI50 (SK-OV-3): 18.1 µM (inactive) | GI50 (HOP-92): 2.38 µM (inactive) | GI50 (M14): 1.49 µM (inactive) | GI50 (HCC 2998): 94.4 µM (inactive) | GI50 (U-251): 9.29 µM (inactive) | GI50 (UACC-62): 3.35 µM (inactive) | GI50 (MDA-MB-231): 40.5 µM (inactive) | GI50 (SK-MEL-5): 11 µM (inactive) | GI50 (HL-60): 6.28 µM (inactive) | GI50 (SK-MEL-28): 96.4 µM (inactive) | GI50 (SF-295): 7.26 µM (inactive) | GI50 (786-0): 3.7 µM (inactive) | GI50 (SN12C): 7.16 µM (inactive)
